Laboratory results from ChEMBL document CHEMBL2040771, “Discovery of a potent inhibitor of anaplastic lymphoma kinase with in vivo antitumor activity” (ACS Med Chem Lett, 2010).
Activity calls are given as the source filed them. The calls are words filed in the database; no cut-off is given here.

Columns and labels:
[1] = target: Dual specificity protein kinase TTK (Homo sapiens) (UniProt P33981); test: Inhibition of TTK at 1 uM
[2] = target: Dual specificity mitogen-activated protein kinase kinase 4 (Homo sapiens) (UniProt P45985); test: Inhibition of MEK4 at 1 uM
[3] = target: Macrophage colony-stimulating factor 1 receptor (Homo sapiens) (UniProt P07333); test: Inhibition of CSF1R at 0.1 uM
Sequence of Macrophage colony-stimulating factor 1 receptor (Homo sapiens) (P07333 whole entry): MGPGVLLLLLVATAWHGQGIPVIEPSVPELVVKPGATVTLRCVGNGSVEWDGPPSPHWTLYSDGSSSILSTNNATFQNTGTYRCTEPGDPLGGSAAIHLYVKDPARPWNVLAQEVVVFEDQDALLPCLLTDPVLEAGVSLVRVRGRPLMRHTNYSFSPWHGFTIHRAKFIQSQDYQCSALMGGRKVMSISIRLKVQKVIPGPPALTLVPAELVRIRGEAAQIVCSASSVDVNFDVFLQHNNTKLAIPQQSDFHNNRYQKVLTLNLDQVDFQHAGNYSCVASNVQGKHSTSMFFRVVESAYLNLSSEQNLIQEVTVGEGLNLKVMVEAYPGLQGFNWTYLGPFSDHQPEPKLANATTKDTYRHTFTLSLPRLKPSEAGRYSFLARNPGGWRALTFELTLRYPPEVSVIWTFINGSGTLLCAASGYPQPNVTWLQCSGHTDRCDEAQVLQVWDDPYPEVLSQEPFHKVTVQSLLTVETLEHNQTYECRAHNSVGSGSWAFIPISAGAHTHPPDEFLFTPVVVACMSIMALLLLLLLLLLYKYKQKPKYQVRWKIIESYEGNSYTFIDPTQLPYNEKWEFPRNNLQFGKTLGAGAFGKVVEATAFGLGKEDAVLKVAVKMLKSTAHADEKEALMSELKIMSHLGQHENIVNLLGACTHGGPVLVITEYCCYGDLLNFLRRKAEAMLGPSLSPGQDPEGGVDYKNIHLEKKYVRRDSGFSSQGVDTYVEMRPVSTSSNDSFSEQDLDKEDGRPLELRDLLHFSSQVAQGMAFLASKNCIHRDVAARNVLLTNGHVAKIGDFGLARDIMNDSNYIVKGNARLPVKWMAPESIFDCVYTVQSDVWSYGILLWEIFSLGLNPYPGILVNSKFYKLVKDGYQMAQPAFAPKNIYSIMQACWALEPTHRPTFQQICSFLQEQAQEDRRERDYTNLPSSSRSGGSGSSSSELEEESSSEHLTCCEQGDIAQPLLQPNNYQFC

[4] = Oral bioavailability in SCID mouse at 10 mg/kg; format: ADME, organism-based; conditions: in vivo
[5] = target: Non-receptor tyrosine-protein kinase TNK1 (Homo sapiens) (UniProt Q13470); test: Inhibition of TNK1 at 0.1 uM
[6] = test system: Epidermal growth factor receptor (Homo sapiens), P04626+P00533+Q15303+P21860 [UNDEFINED MUTATION]; test: Inhibition of EGFR L747 to E749 deletion, A750P mutant at 1 uM; format: protein assay
[7] = test system: Epidermal growth factor receptor (Homo sapiens), P00533 [L858R]; test: Inhibition of EGFR L858R mutant at 1 uM; format: protein assay
Sequence of Epidermal growth factor receptor (Homo sapiens), P00533 [L858R] (P00533 whole entry L858R): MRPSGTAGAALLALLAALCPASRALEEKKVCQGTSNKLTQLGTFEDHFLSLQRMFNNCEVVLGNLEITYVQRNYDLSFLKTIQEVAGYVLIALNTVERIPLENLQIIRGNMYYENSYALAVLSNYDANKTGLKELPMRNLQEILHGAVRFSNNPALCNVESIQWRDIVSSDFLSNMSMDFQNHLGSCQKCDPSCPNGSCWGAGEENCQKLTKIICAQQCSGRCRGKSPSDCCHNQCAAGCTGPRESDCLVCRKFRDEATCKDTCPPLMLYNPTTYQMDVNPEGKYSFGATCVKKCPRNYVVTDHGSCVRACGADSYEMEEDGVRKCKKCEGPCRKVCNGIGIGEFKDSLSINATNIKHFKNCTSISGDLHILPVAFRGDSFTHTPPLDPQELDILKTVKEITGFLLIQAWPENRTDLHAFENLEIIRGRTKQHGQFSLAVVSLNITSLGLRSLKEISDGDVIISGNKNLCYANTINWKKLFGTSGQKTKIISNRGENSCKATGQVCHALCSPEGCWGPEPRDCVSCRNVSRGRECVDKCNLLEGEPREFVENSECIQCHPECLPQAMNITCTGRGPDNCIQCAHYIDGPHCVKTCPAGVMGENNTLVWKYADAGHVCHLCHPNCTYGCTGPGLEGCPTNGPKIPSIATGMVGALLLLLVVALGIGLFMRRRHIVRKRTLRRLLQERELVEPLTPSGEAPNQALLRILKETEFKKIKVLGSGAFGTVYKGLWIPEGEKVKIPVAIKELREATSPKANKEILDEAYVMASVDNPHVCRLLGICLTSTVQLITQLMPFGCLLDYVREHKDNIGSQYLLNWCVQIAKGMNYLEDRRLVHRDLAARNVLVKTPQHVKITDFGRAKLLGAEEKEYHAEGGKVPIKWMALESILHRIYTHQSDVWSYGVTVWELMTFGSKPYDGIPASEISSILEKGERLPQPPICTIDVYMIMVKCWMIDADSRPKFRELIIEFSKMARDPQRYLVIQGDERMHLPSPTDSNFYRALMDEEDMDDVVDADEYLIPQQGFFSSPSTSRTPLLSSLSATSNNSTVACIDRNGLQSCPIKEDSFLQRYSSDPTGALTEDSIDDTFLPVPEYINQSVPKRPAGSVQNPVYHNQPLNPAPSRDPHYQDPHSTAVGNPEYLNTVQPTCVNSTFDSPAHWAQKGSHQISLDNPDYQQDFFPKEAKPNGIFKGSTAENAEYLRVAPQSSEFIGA

[8] = test system: Receptor-type tyrosine-protein kinase FLT3 (Homo sapiens), P36888 [D835H]; test: Inhibition of FLT3 D835H mutant at 1 uM
[9] = Volume of distribution in Sprague-Dawley rat at 1 mg/kg, iv; format: ADME, organism-based; parameters: dose 1 mg/kg, route intravenous; conditions: in vivo
[10] = Tmax in beagle dog at 10 mg/kg, po; format: ADME, organism-based, Canis lupus familiaris; parameters: dose 10 mg/kg, route oral; conditions: in vivo
[11] = target: Proto-oncogene tyrosine-protein kinase ROS (Homo sapiens) (UniProt P08922); test: Inhibition of ROS at 1 uM
[12] = target: Serine/threonine-protein kinase 33 (Homo sapiens) (UniProt Q9BYT3); test: Inhibition of STK33 at 1 uM
Sequence of Serine/threonine-protein kinase 33 (Homo sapiens) (Q9BYT3 whole entry, looked up): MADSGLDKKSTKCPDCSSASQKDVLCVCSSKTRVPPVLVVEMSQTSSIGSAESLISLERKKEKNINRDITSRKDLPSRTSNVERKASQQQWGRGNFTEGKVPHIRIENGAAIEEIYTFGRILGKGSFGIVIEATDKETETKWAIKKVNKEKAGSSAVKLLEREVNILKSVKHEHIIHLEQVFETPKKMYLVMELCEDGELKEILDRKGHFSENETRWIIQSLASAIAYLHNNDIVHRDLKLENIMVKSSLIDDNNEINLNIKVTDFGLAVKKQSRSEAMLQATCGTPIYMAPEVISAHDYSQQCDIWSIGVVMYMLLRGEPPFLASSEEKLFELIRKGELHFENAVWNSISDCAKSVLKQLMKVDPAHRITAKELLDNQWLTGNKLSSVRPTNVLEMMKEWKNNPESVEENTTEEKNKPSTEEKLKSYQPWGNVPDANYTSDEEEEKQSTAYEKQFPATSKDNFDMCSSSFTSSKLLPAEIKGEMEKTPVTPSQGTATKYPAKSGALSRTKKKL

[13] = Tmax in SCID mouse at 10 mg/kg, po; format: ADME, organism-based; parameters: dose 10 mg/kg, route oral; conditions: in vivo
[14] = target: Ribosomal protein S6 kinase alpha-1 (Homo sapiens) (UniProt Q15418); test: Inhibition of RPS6KA1 at 1 uM
[15] = target: Platelet-derived growth factor receptor beta (Homo sapiens) (UniProt P09619); test: Inhibition of PDGFRB at 1 uM
[16] = target: Insulin receptor (Homo sapiens, UniProt P06213); test: Inhibition of insulin receptor
[17] = target: Protein-tyrosine kinase 6 (Homo sapiens) (UniProt Q13882); test: Inhibition of BRK at 0.1 uM
[18] = target: Mitogen-activated protein kinase kinase kinase 5 (Homo sapiens) (UniProt Q99683); test: Inhibition of ASK1 at 0.1 uM
[19] = target: Epidermal growth factor receptor (Homo sapiens) (UniProt P00533); test: Inhibition of EGFR at 0.1 uM
Sequence of Epidermal growth factor receptor (Homo sapiens) (UniProt P00533) (P00533 whole entry): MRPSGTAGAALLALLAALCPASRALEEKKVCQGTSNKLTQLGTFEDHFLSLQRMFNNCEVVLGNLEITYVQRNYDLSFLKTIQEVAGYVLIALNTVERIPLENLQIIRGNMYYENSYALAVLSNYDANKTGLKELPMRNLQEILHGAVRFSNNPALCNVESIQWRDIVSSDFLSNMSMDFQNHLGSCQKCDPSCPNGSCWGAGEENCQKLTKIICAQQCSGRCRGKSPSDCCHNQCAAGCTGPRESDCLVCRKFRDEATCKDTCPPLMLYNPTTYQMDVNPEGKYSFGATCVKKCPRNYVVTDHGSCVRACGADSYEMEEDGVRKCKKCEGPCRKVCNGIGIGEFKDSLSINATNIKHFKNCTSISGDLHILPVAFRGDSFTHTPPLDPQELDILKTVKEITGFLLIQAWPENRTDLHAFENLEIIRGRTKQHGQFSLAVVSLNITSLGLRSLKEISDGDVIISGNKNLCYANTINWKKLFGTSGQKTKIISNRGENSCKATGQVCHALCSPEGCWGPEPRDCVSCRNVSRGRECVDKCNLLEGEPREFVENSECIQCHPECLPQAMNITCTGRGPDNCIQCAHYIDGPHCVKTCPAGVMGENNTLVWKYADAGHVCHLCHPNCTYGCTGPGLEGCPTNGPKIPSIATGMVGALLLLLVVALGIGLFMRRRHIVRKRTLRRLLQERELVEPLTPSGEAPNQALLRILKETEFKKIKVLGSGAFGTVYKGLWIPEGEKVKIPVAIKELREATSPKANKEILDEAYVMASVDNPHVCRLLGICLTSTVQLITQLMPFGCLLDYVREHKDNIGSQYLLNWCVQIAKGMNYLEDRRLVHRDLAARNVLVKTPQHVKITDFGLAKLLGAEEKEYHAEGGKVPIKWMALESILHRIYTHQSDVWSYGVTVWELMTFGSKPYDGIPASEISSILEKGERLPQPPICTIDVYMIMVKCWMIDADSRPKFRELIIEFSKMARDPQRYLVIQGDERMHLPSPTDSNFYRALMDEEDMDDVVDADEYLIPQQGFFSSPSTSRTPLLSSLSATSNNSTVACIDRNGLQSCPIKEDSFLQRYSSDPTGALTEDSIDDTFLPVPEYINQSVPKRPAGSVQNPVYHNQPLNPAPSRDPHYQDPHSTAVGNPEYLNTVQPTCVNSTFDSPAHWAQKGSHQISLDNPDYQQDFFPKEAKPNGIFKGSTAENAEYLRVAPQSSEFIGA

[20] = target: Serine/threonine-protein kinase 3 (Homo sapiens) (UniProt Q13188); test: Inhibition of MST2 at 0.1 uM
Sequence of Serine/threonine-protein kinase 3 (Homo sapiens) (Q13188 whole entry): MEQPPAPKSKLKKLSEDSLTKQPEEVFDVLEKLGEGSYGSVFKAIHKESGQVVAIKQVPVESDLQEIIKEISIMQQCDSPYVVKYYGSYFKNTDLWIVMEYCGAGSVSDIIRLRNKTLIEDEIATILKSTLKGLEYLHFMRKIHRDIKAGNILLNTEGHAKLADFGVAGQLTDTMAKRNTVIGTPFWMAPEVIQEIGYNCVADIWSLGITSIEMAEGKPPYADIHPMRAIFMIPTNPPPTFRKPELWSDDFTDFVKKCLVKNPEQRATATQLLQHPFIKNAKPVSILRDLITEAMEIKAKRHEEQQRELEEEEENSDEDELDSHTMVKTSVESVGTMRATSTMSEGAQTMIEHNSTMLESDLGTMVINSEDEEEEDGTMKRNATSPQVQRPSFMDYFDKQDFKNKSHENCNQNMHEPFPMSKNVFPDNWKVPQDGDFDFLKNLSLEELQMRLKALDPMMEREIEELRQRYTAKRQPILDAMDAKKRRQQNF

[21] = test system: Epidermal growth factor receptor (Homo sapiens), P00533 [L858R]; test: Inhibition of EGFR L858R mutant at 0.1 uM; format: protein assay
[22] = target: Fibroblast growth factor receptor 4 (Homo sapiens) (UniProt P22455); test: Inhibition of FGFR4 at 0.1 uM
[23] = test system: K562; test: Induction apoptosis in ALK-negative human K562 cells assessed as activation of caspase 3/7 by fluorometric assay; format: functional, cell-based
[24] = target: Serine/threonine-protein kinase 33 (Homo sapiens) (UniProt Q9BYT3); test: Inhibition of STK33 at 0.1 uM
[25] = target: Cyclin-G-associated kinase (Homo sapiens) (UniProt O14976); test: Inhibition of GAK at 0.1 uM
[26] = target: Epidermal growth factor receptor (Homo sapiens) (UniProt P04626+P00533+Q15303+P21860); test: Inhibition of EGFR L747 to E749 deletion, A750P mutant at 0.1 uM; format: protein assay
[27] = Inhibition of FLT3 ITD mutant at 0.1 uM
[28] = test system: Receptor-type tyrosine-protein kinase FLT3 (Homo sapiens), P36888 [D835H]; test: Inhibition of FLT3 D835H mutant at 0.1 uM
[29] = test system: SUP-M2; test: Antitumor activity against ALK-positive human SUP-M2 cells xenografted in SCID mouse assessed as complete tumor regression at 55 mg/kg, po bid after 12 days; format: functional, organism-based; parameters: dose 55 mg/kg
[30] = test system: Mus musculus; test: Toxicity in SCID mouse xenografted with human SUP-M2 cells assessed as weight loss at 10 mg/kg, po BID for 12 days; format: organism-based; parameters: dose 10 mg/kg, route oral; conditions: in vivo, 288 h
[31] = Half life in beagle dog at 1 mg/kg, iv; format: ADME, organism-based, Canis lupus familiaris; parameters: dose 1 mg/kg, route intravenous; conditions: in vivo
[32] = Plasma clearance in SCID mouse at 1 mg/kg, iv by LC/MS/MS analysis; format: ADME, organism-based; parameters: dose 1 mg/kg, route intravenous
[33] = target: Mitogen-activated protein kinase 8 (Homo sapiens) (UniProt P45983); test: Inhibition of JNK1 at 1 uM
[34] = target: Serine/threonine-protein kinase PLK4 (Homo sapiens) (UniProt O00444); test: Inhibition of PLK4 at 1 uM
[35] = test system: KARPAS-299; test: Growth inhibition of ALK-positive human KARPAS299 cells by MTS assay; format: functional, cell-based
[36] = target: Tyrosine-protein kinase Srms (Homo sapiens) (UniProt Q9H3Y6); test: Inhibition of SRMS at 1 uM
[37] = test system: Receptor-type tyrosine-protein kinase FLT3 (Homo sapiens), P36888 [D835Y]; test: Inhibition of FLT3 D835Y mutant at 0.1 uM
[38] = test system: Mus musculus; test: Toxicity in SCID mouse xenografted with human SUP-M2 cells assessed as weight loss at 55 mg/kg, po BID for 12 days; format: organism-based; parameters: dose 55 mg/kg, route oral; conditions: in vivo, 288 h
[39] = target: Serine/threonine-protein kinase 32B (Homo sapiens) (UniProt Q9NY57); test: Inhibition of YANK2 at 0.1 uM
[40] = test system: Receptor-type tyrosine-protein kinase FLT3 (Homo sapiens), P36888 [N841I]; test: Inhibition of FLT3 N841I mutant at 1 uM
[41] = target: Serine/threonine-protein kinase PAK 3 (Homo sapiens) (UniProt O75914); test: Inhibition of PAK3 at 1 uM
[42] = Drug uptake in tumor lysates in SCID mouse xenografted with ALK-positive human SUP-M2 cells at 10 mg/kg, po bid for 12 days; format: ADME, organism-based, Neoplasm; parameters: dose 10 mg/kg, route oral; conditions: read-out: Drug uptake
[43] = AUC in Sprague-Dawley rat at 1 mg/kg, iv; format: ADME, organism-based; parameters: dose 1 mg/kg, route intravenous; conditions: plasma
[44] = target: NUAK family SNF1-like kinase 1 (Homo sapiens) (UniProt O60285); test: Inhibition of ARK5 at 1 uM
[45] = Oral bioavailability in Sprague-Dawley rat at 5 mg/kg; format: ADME, organism-based; conditions: in vivo
[46] = target: Mitogen-activated protein kinase 9 (Homo sapiens) (UniProt P45984); test: Inhibition of JNK2 at 1 uM
Sequence of Mitogen-activated protein kinase 9 (Homo sapiens) (P45984 whole entry, looked up): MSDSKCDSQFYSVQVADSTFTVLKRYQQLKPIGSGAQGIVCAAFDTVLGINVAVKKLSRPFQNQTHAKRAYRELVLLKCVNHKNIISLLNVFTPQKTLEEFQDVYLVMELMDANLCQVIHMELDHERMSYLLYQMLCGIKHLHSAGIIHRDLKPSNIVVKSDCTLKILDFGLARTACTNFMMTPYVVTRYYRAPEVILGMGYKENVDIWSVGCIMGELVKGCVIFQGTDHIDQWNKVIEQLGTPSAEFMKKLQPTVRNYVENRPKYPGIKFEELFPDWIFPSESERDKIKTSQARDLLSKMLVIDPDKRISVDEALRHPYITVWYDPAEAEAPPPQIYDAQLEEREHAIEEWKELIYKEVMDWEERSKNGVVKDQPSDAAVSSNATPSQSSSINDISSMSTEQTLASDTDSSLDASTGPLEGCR

[47] = target: ALK tyrosine kinase receptor (Homo sapiens, UniProt Q9UM73); conditions: 0.1 uM
Description: Inhibition of ALK at 0.1 uM

[48] = target: Focal adhesion kinase 1 (Homo sapiens) (UniProt Q05397); test: Inhibition of FAK at 1 uM
[49] = Drug uptake in tumor lysates in SCID mouse xenografted with ALK-positive human SUP-M2 cells at 30 mg/kg, po bid for 12 days; format: ADME, organism-based, Neoplasm; parameters: dose 30 mg/kg, route oral; conditions: read-out: Drug uptake
[50] = target: Macrophage colony-stimulating factor 1 receptor (Homo sapiens) (UniProt P07333); test: Inhibition of CSF1R at 1 uM

Compound: CCN1C(=O)CCCc2c1ccc(Nc1ncc(Cl)c(N[C@H]3[C@@H](C(N)=O)[C@@H]4C=C[C@H]3C4)n1)c2OC
- inhibition [1]: 96%
- inhibition [2]: 90%
- inhibition [3]: < 50%
- bioavailability [4]: 32%
- inhibition [5]: 93%
- inhibition [6]: 94%
- inhibition [7]: 92%
- inhibition [8]: 95%
- Vd [9]: 0.9 L/kg
- Tmax [10]: 1.1 h
- inhibition [11]: 93%
- inhibition [12]: 99%
- Tmax [13]: 0.25 h
- inhibition [14]: 100%
- inhibition [15]: 98%
- IC50 [16]: 597 nM
- inhibition [17]: 88%
- inhibition [18]: 72%
- inhibition [19]: < 50%
- inhibition [20]: < 50%
- inhibition [21]: < 50%
- inhibition [22]: < 50%
- Activity [23]: inactive
- inhibition [24]: 84%
- inhibition [25]: < 50%
- inhibition [26]: < 50%
- inhibition [27]: < 50%
- inhibition [28]: 85%
- Activity [29]: Active
- Activity [30]: Non-toxic
- half-life [31]: 1.1 h
- clearance [32]: 37 mL/min/kg
- inhibition [33]: 100%
- inhibition [34]: 95%
- EC50 [35]: 200 nM
- inhibition [36]: 94%
- inhibition [37]: 90%
- Activity [38]: Non-toxic
- inhibition [39]: < 50%
- inhibition [40]: 95%
- inhibition [41]: 90%
- concentration at 288 h [42]: 3560 ng/g
- AUC [43]: 1280 ng·h/mL
- inhibition [44]: 92%
- bioavailability [45]: 64%
- inhibition [46]: 92%
- inhibition [47]: 89%
- inhibition [48]: 99%
- concentration at 288 h [49]: 405 ng/g
- inhibition [50]: 91%
